Reference: patent US6472391B2, “Nitrogen-containing heterocyclic compounds” (Millennium Pharmaceuticals, Inc., priority 1996, dated 2002)
Structures can show the parent of a compound that is named as a salt.

melting point | Structure (SMILES)
240 to 241 °C | COc1cc2ncnc(N3CCN(C(=O)Nc4ccc(C(=O)c5ccccc5)cc4)CC3)c2cc1OC [Compound 245, N-(4-Benzoylphenyl)-4-(6,7-dimethoxy-4-quinazolinyl)-1-piperazinecarboxamide]
205 to 206 °C | COc1cc2ncnc(N3CCN(C(=O)Nc4ccc(Cl)cc4[N+](=O)[O-])CC3)c2cc1OC [Compound 234, N-(4-Chloro-2-nitrophenyl)-4-(6,7-dimethoxy-4-quinazolinyl)-1-piperazinecarboxamide]
221 to 222 °C | COc1cc2ncnc(N3CCN(C(=O)Nc4cccc(Br)c4)CC3)c2cc1OC [Compound 44, N-(3-Bromophenyl)-4-(6,7-dimethoxy-4-quinazolinyl)-1-piperazinecarboxamide]
174 to 175 °C | COc1cc2c(N3CCN(C(=S)NCc4ccccc4)CC3)ncnc2cc1OC(C)C [Compound 341, N-Benzyl-4-(7-isopropoxy-6-methoxy-4-quinazolinyl)-1-piperazinethiocarboxamide]
250 to 255 °C | Cn1c(=O)n(C)c2cc3c(N4CCN(C(=O)Nc5ccc(Oc6ccccc6)cc5)CC4)ncnc3cc21 [Compound 121, 4-(1,3-Dihydro-1,3-dimethyl-2-oxo-2H-imidazo[4,5-g]quinazolin-8-yl)-N-(4-phenoxyphenyl)-1-piperazinecarboxamide]
220 to 222 °C | COc1cc2ncnc(N3CCN(C(=O)Nc4ccc(OC(C)C)cc4)CC3)c2cc1OC [Compound 202, 4-(6,7-Dimethoxy-4-quinazolinyl)-N-(4-isopropoxyphenyl)-1-piperazinecarboxamide]
179 to 180 °C | CCCn1c(=O)n(CCC)c2cc3c(N4CCN(C(=O)Nc5ccc(Oc6ccccc6)cc5)CC4)ncnc3cc21 [Compound 389, 4-(1,3-Dihydro-1,3-dipropyl-2-oxo-2H-imidazo[4,5-g]quinazolin-8-yl)-N-(4-phenoxyphenyl)-1-piperazinecarboxamide]
273 to 274 °C | COc1cc2ncnc(N3CCN(C(=O)Nc4ccc([N+](=O)[O-])c([N+](=O)[O-])c4)CC3)c2cc1OC
166 to 168 °C | COc1cc2ncnc(N3CCN(C(=S)NC(=O)c4ccc(Cl)cc4)CC3)c2cc1OC [Compound 179, N-(4-Chlorobenzoyl)-4-(6,7-dimethoxy-4-quinazolinyl)-1-piperazinethiocarboxamide]
234 to 236 °C | CC(C)c1ccc(NC(=O)N2CCN(c3ncnc4c(Cl)cc(Cl)cc34)CC2)cc1 [Compound 376, 4-(6,8-Dichloro-4-quinazolinyl)-N-(4-isopropylphenyl)-1-piperazinecarboxamide]
93 to 95 °C | O=[N+]([O-])c1cc2c(N3CCN(C(=S)NCc4ccccc4)CC3)ncnc2cc1Cl [Compound 358, N-Benzyl-4-(7-chloro-6-nitro-4-quinazolinyl)-1-piperazinethiocarboxamide]
238 to 241 °C | COc1cc2ncnc(N3CCN(C(=O)Nc4ccc(C5CCCCC5)cc4)CC3)c2cc1OC [Compound 26, N-(4-Cyclohexylphenyl)-4-(6,7-dimethoxy-4-quinazolinyl)-1-piperazinecarboxamide]
246 to 247 °C | N#Cc1ccc(NC(=O)N2CCN(c3ncnc4cc5c(cc34)OCCO5)CC2)cc1 [Compound 373, N-(4-Cyanophenyl)-4-(6,7-ethylenedioxy-4-quinazolinyl)-1-piperazinecarboxamide]
225 to 228 °C | COc1cc2ncnc(N3CCN(C(=O)Nc4ccc(C)cc4)CC3)c2cc1OC [Compound 17, 4-(6,7-Dimethoxy-4-quinazolinyl)-N-(4-tolyl)-1-piperazinecarboxamide]
251 to 252 °C | CCc1ccc(NC(=O)N2CCN(c3ncnc4cc(OC)c(OC)cc34)CC2)cc1 [Compound 18, N-(4-Ethylphenyl)-4-(6,7-Dimethoxy-4-quinazolinyl)-1-piperazinecarboxamide]
135 to 136 °C | COc1cc2ncnc(N3CCN(C(=O)NCc4ccc(C(C)C)cc4)CC3)c2cc1OC [Compound 153, 4-(6,7-Dimethoxy-4-quinazolinyl)-N-(4-isopropylbenzyl)-1-piperazinecarboxamide]
280 to 282 °C | COc1cc2ncnc(N3CCN(C(=O)Nc4c(C(C)C)cccc4C(C)C)CC3)c2cc1OC [Compound 31, N-(2,6-Diisopropylphenyl)-4-(6,7-dimethoxy-4-quinazolinyl)-1-piperazinecarboxamide]
103 to 105 °C | COc1cc2ncnc(N3CCN(C(=S)NC(=O)c4ccc([N+](=O)[O-])cc4)CC3)c2cc1OC [Compound 232, 4-(6,7-Dimethoxy-4-quinazolinyl)-N-(4-nitrobenzoyl)-1-piperazinethiocarboxamide]
174 to 175 °C | CCOc1cc2ncnc(N3CCN(C(=O)Nc4ccc(Oc5ccccc5)cc4)CC3)c2cc1OC [Compound 335, 4-(7-Ethoxy-6-methoxy-4-quinazolinyl)-N-(4-phenoxyphenyl)-1-piperazinecarboxamide]
217 to 219 °C | COc1cc2ncnc(N3CCN(C(=O)Nc4ccc(Cl)cc4)CC3)c2cc1OC [Compound 40, N-(4-Chlorophenyl)-4-(6,7-dimethoxy-4-quinazolinyl)-1-piperazinecarboxamide]
197 to 200 °C | COc1cc2ncnc(N3CCN(C(=S)NCc4ccc(Cl)c(Cl)c4)CC3)c2cc1OC [Compound 195, N-(3,4-Dichlorobenzyl)-4-(6,7-dimethoxy-4-quinazolinyl)-1-piperazinethiocarboxamide]
254 to 256 °C | COc1cc2ncnc(N3CCN(C(=O)Nc4cccc5ccccc45)CC3)c2cc1OC [Compound 8, 4-(6,7-Dimethoxy-4-quinazolinyl)-N-(1-naphthyl)-1-piperazinecarboxamide]
242 to 243 °C | COc1cc2c(N3CCN(C(=O)Nc4ccc(C#N)cc4)CC3)ncnc2cc1C [Compound 334, N-(4-Cyanophenyl)-4-(6-methoxy-7-methyl-4-quinazolinyl)-1-piperazinecarboxamide]

Further lines, the molecule ahead of its results:

Structure (SMILES) | melting point
S=C(NCc1cccnc1)N1CCN(c2ncnc3cc4c(cc23)OCO4)CC1 [Compound 371, 4-(6,7-Methylenedioxy-4-quinazolinyl)-N-(3-picolyl)-1-piperazinethiocarboxamide] | 167 to 168 °C
COc1cc2ncnc(N3CCN(C(=S)NCC4CCCCC4)CC3)c2cc1OC [Compound 138, N-Cyclohexylmethyl-4-(6,7-dimethoxy-4-quinazolinyl)-1-piperazinethiocarboxamide] | 170 to 171 °C
FC(F)(F)Oc1ccc2nccc(N3CCN(C(=S)NCc4ccccc4)CC3)c2c1 [Compound 403, N-Benzyl-4-(6-trifluoromethoxy-4-quinolyl)-1-piperazinethiocarboxamide] | 70 to 71 °C
O=C(Nc1ccc(Oc2ccccc2)cc1)N1CCN(c2ncnc3cc(OCc4ccccc4)c(OCc4ccccc4)cc23)CC1 [Compound 355, 4-(6,7-Dibenzyloxy-4-quinazolinyl)-N-(4-phenoxyphenyl)-1-piperazinecarboxamide] | 137 to 138 °C
COc1cc2ncnc(N3CCN(C(=S)Nc4ccc(OCc5ccccc5)cc4)CC3)c2cc1OC [Compound 63, N-(4-Benzyloxyphenyl)-4-(6,7-dimethoxy-4-quinazolinyl)-1-piperazinethiocarboxamide] | 103 to 105 °C
CCOc1cc2ncnc(N3CCN(C(=S)NCc4ccccc4)CC3)c2cc1OC [Compound 337, N-Benzyl-4-(7-ethoxy-6-methoxy-4-quinazolinyl)-1-piperazinethiocarboxamide] | 168 to 169 °C
Cc1ccc2c(N3CCN(C(=S)NCc4ccccc4)CC3)ncnc2c1 [Compound 314, N-Benzyl-4-(7-methyl-4-quinazolinyl)-1-piperazinethiocarboxamide] | 177 to 178 °C
S=C(NCc1cccnc1)N1CCN(c2ncnc3ccccc23)CC1 [Compound 286, N-(3-Picolyl)-4-(4-quinazolinyl)-1-piperazinethiocarboxamide] | 193 to 194 °C
COc1cc2ncnc(N3CCN(C(=S)Nc4cc(O)nc(O)n4)CC3)c2cc1OC [Compound 277, N-(2,6-Dihydroxy-4-pyrimidinyl)-4-(6,7-dimethoxy-4-quinazolinyl)-1-piperazinethiocarboxamide] | 283 to 285 °C
Cc1cccc2ncnc(N3CCN(C(=S)NCc4ccccc4)CC3)c12 [Compound 288, N-Benzyl-4-(5-methyl-4-quinazolinyl)-1-piperazinethiocarboxamide] | 165 to 167 °C
FC(F)(F)c1ccc2nccc(N3CCN(C(=S)NCc4ccccc4)CC3)c2c1 [Compound 398, N-Benzyl-4-(6-trifluoromethyl-4-quinolyl)-1-piperazinethiocarboxamide] | 158 to 159 °C
CCOc1cc2ncnc(N3CCN(C(=S)NCc4cccnc4)CC3)c2cc1OCC [Compound 354, 4-(6,7-Diethoxy-4-quinazolinyl)-N-(3-picolyl)-1-piperazinethiocarboxamide] | 90 to 92 °C
COc1cc2ncnc(N3CCN(C(=S)Nc4ccc(N=Nc5ccc(N(C)C)cc5)cc4)CC3)c2cc1OC [Compound 74, 4-(6,7-Dimethoxy-4-quinazolinyl)-N-[4-(4-dimethylaminophenylazo)phenyl]-1-piperazinethiocarboxamide] | 148 to 149 °C
COc1cc2ncnc(N3CCN(C(=S)Nc4ccc5c(c4)OCCO5)CC3)c2cc1OC [Compound 209, 4-(6,7-Dimethoxy-4-quinazolinyl)-N-(3,4-ethylenedioxyphenyl)-1-piperazinethiocarboxamide] | 165 to 166 °C
COc1cc2nc(N3CCOCC3)nc(N3CCN(C(=O)Nc4ccc(Oc5ccccc5)cc4)CC3)c2cc1OC [Compound 393, 4-(6,7-Dimethoxy-2-morpholino-4-quinazolinyl)-N-(4-phenoxyphenyl)-1-piperazinecarboxamide] | 114 to 116 °C
COc1cc(OC)c2ncnc(N3CCN(C(=S)NCc4cccnc4)CC3)c2c1 (as salt: hydrochloride) [Compound 382, 4-(6,8-Dimethoxy-4-quinazolinyl)-N-(3-picolyl)-1-piperazinethiocarboxamide] | 164 to 167 °C
